Reference: paper PMC2904697, “A Screen for Kinetochore-Microtubule Interaction Inhibitors Identifies Novel Antitubulin Compounds” (PLoS ONE, 2010)

Columns and labels:
[1] = tested on: recombinant CLIP-170^488 binding to taxol-stabilized MTs; assay: CLIP-170^488 binding to taxol-stabilized MTs (specificity control); details: compound B at 50 µmol/l
From the text: Figure 2 Compound B prevents the recombinant Ndc80 kinetochore complex from binding to taxol-stabilized microtubules. Effect of compound B (50 µmol/l) on binding of the Ndc80^488 complex to rhodamine-labeled, taxol-stabilized MTs as assayed using inverted wide-field fluorescence microscopy. The scale bar represents 4 µm (A). Structure of compound B; 6-furan-2-yl-3-methyl-4-oxo-4,5,6,7-tetrahydro-1H-indole-2-carboxylic acid (tetrahydro-furan-2-yl)methyl ester (B). Measurement of the IC50 value of compound B using total internal reflection fluorescence microscopy. The scale bar represents 4 µm (C). Compound B (50 µmol/l) prevented MT-associating protein CLIP-170^488, used as a specificity control, from binding to taxol-stabilized MTs. The scale bar represents 4 µm (D). […] The scale bar represents 4 µm (E).
A compound inhibiting the Ndc80^488 complex-MT interaction could act either against the complex or against the MTs. To probe the specificity of compound B toward the Ndc80^488 complex, we examined its ability to inhibit MT binding of recombinant CLIP-170^488, a MT plus-end tracking protein.

HeLa cells = assay: Mitotic delay and cell death in G1/S-synchronized HeLa cells (time-lapse videomicroscopy); format: cell-based, human
Experimental: At compound B concentrations of 5 µmol/l and above, the cells arrested robustly in metaphase (∼15 h) and then underwent cell death, as diagnosed by cell shrinkage (Fig. 3B). […] This phenotype is indicative of chromatids being unable to bind to spindle MTs and/or of spindle defects, as observed with nocodazole (Fig. 3C). […] Because drugs that inhibit tubulin polymerization also destabilize MTs, we next probed whether compound B destabilized metaphase spindles. We arrested HeLa cells in metaphase using 10 µmol/l of proteosome inhibitor MG132. […] Thus, compound B prevents tubulin assembly and destabilizes spindle MTs in cells.
Next, we determined whether the elevated antitubulin activities of compounds A6, A8, D7 and E7 (versus compound B), and the discrepancies in activity between the compounds themselves were reflected in their effects on mitosis. G1/S synchronized HeLa cells were released into growth medium containing 100 or 500 nmol/l of these compounds or compound B; the duration of the mitotic delay by the compounds and the percentage of cells undergoing subsequent cell death were scored. […] The four compounds triggered mitotic delays to an extent that directly reflects their activities in vitro (compare Fig. 6E and Fig. 6, panels B to D). […] Of note, each of our compounds acted in cells with an efficacy exceeding those measured in vitro (compare Fig. 6E and Fig. 5). This discrepancy may be due to increased compound:tubulin ratios in cells. Alternatively, the compounds may be modified intracellularly, resulting in enhanced activity. Because compound B and the four second-generation compounds are 6-furan-2-yl-3-methyl-4-oxo-4,5,6,7-tetrahydro-1H-indole-2-carboxylic acid derivatives, we have named these tubulin inhibitors “furan-metoticas”.

[2] = tested on: hTERT RPE-1, HCT-116 and A2780 cell lines; assay: Viability analysis (CellTiter 96 Assay); format: cell-based; details: Homo sapiens, 72 h, A2780 and HCT-116 cells, 3 d, 1–1000 nmol/l, read-out: IC50 for killing of cells (viability)
Experimental: RPE, a telomerase-immortalized cell line derived from retinal pigment epithelium, served as the non-cancer control. Antitubulin agents colchicine and nocodazole were used as controls for drug activity. The RPE, A2780, and HCT-116 cells were efficiently killed by compound A8 and the control drugs.
Viability analysis in the presence of antitubulin drugs was performed on hTERT RPE-1 (ATCC), HCT-116 (ATCC), and A2780 (EACC) cell lines. Cell lines were authenticated by PCR [22]. Absence of eight commonly encountered mycoplasma species was confirmed by PCR [23]. Experiments were performed with freshly thawed cells, which were seeded in 96-well MICROTEST tissue culture plates (Falcon) at ∼500 cells/well and grown at 37°C. After 6 h, nocodazole, colchicine or compound A8 were added (1–1000 nmol/l). The cells were incubated for 3 d at 37°C and then assayed for viability (CellTiter 96 Assay, Promega).

| Compound | Effect on binding of CLIP-170^488 to taxol-stabilized MTs [1] | Concentration inducing a mitotic delay (HeLa cells; HeLa released from G1/S) | Concentration inducing cell death (HeLa cells; HeLa released from G1/S) | Duration of metaphase arrest (HeLa cells; HeLa, compound concentrations of 5 µmol/l and above, followed by cell death) | IC50 [2] | Effect on mitosis at 500 nmol/l (HeLa cells; HeLa released from G1/S, 500 nmol/l) |
| --- | --- | --- | --- | --- | --- | --- |
| Cc1c(C(=O)OCC2CCCO2)[nH]c2c1C(=O)CC(c1ccco1)C2 (stereo not drawn) [compound B, 6-furan-2-yl-3-methyl-4-oxo-4,5,6,7,-tetrahydro-1H-indole-2-carboxylic acid tetrahydro-furan-2-ylmethyl ester] | prevented | 1 to 10 µmol/L | 5 to 10 µmol/L | ~15 h | – | – |
| CCSCCOC(=O)c1[nH]c2c(c1C)C(=O)C[C@@H](c1ccco1)C2 [A8] | – | – | – | – | 25 nM | robust mitotic block, followed by cell death |
